Test system: 996289-038-R-J1-PDC complex spheroid viability
Assay: Anticancer human tumor 996289-038-R-J1-PDC patient-derived colon adenocarcinoma cell line growth inhibition [CLK]
Details: for IC50: curve of first compound; for viability, T/C: stronger effect = lower value
Method in brief: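 Patient-derived tumor cells grown as complex spheroids with HUVEC endothelial cells and mesenchymal stem cells, treated with drug combinations. Concentrations descend in half-log steps from near clinical Cmax, or from 10 microM if Cmax unknown.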

[1] = second compound 0.0316 µM, first compound 0.0316 µM
[2] = second compound 0.0316 µM, first compound 0.1 µM
[3] = second compound 0.0316 µM, first compound 0.316 µM
[4] = second compound 0.0316 µM, first compound 1 µM
[5] = second compound 0.0316 µM, first compound 3.16 µM
[6] = second compound 0.0316 µM, first compound 10 µM
[7] = second compound 0.1 µM, first compound 0.0316 µM
[8] = second compound 0.1 µM, first compound 0.1 µM
[9] = second compound 0.1 µM, first compound 0.316 µM
[10] = second compound 0.1 µM, first compound 1 µM
[11] = second compound 0.1 µM, first compound 3.16 µM
[12] = second compound 0.1 µM, first compound 10 µM
[13] = second compound 0.316 µM, first compound 0.0316 µM
[14] = second compound 0.316 µM, first compound 0.1 µM
[15] = second compound 0.316 µM, first compound 0.316 µM
[16] = second compound 0.316 µM, first compound 1 µM
[17] = second compound 0.316 µM, first compound 3.16 µM
[18] = second compound 0.316 µM, first compound 10 µM
[19] = second compound 1 µM, first compound 0.0316 µM
[20] = second compound 1 µM, first compound 0.1 µM
[21] = second compound 1 µM, first compound 0.316 µM
[22] = second compound 1 µM, first compound 1 µM
[23] = second compound 1 µM, first compound 3.16 µM
[24] = second compound 1 µM, first compound 10 µM
[25] = second compound 3.16 µM, first compound 0.0316 µM
[26] = second compound 3.16 µM, first compound 0.1 µM
[27] = second compound 3.16 µM, first compound 0.316 µM
[28] = second compound 3.16 µM, first compound 1 µM
[29] = second compound 3.16 µM, first compound 3.16 µM
[30] = second compound 3.16 µM, first compound 10 µM
[31] = second compound 10 µM, first compound 0.0316 µM
[32] = second compound 10 µM, first compound 0.1 µM
[33] = second compound 10 µM, first compound 0.316 µM
[34] = second compound 10 µM, first compound 1 µM
[35] = second compound 10 µM, first compound 3.16 µM
[36] = second compound 10 µM, first compound 10 µM
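Further: spheroids exposed to the agents for 7 days before readout.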

C#Cc1c(F)ccc2cc(O)cc(-c3ncc4c(N5CC6CCC(C5)N6)nc(OCC56CCCN5CC(F)C6)nc4c3F)c12 (stereo not drawn) + CNC(=O)c1ccc(Nc2nc(OC3CCCC3)c3c(-c4ccc5nc(C)oc5c4)c[nH]c3n2)c(OC)c1
IC50 (second compound 0.0316 µM): 1820 nM | IC50 (second compound 0.1 µM): 503 nM | IC50 (second compound 0.316 µM): 99.1 nM | IC50 (second compound 1 µM): < 31.6 nM | IC50 (second compound 3.16 µM): < 31.6 nM | IC50 (second compound 10 µM): < 31.6 nM | viability, T/C [1]: 107% | viability, T/C [2]: 93.2% | viability, T/C [3]: 71% | viability, T/C [4]: 62.4% | viability, T/C [5]: 40% | viability, T/C [6]: 29.3% | viability, T/C [7]: 106% | viability, T/C [8]: 77.1% | viability, T/C [9]: 55.9% | viability, T/C [10]: 42.4% | viability, T/C [11]: 32.2% | viability, T/C [12]: 30.5% | viability, T/C [13]: 60.7% | viability, T/C [14]: 50.4% | viability, T/C [15]: 35.6% | viability, T/C [16]: 28.3% | viability, T/C [17]: 25.5% | viability, T/C [18]: 22.4% | viability, T/C [19]: 33.8% | viability, T/C [20]: 26.5% | viability, T/C [21]: 25.4% | viability, T/C [22]: 21.5% | viability, T/C [23]: 22.1% | viability, T/C [24]: 20.6% | viability, T/C [25]: 28.3% | viability, T/C [26]: 24.3% | viability, T/C [27]: 24.5% | viability, T/C [28]: 21.4% | viability, T/C [29]: 22.9% | viability, T/C [30]: 17.8% | viability, T/C [31]: 28.7% | viability, T/C [32]: 23.1% | viability, T/C [33]: 20.2% | viability, T/C [34]: 22.3% | viability, T/C [35]: 22.8% | viability, T/C [36]: 17.9%

C=C(F)C(=O)N1CCN(c2nc(OCC3CCCN3C)nc3c2CCN(c2cccc4cccc(Cl)c24)C3)CC1CC#N (stereo not drawn) + CNC(=O)c1ccc(Nc2nc(OC3CCCC3)c3c(-c4ccc5nc(C)oc5c4)c[nH]c3n2)c(OC)c1
IC50 (second compound 0.0316 µM): 5200 nM | IC50 (second compound 0.1 µM): 4820 nM | IC50 (second compound 0.316 µM): 3790 nM | IC50 (second compound 1 µM): 2280 nM | IC50 (second compound 3.16 µM): 1500 nM | IC50 (second compound 10 µM): 1400 nM | viability, T/C [1]: 127% | viability, T/C [2]: 129% | viability, T/C [3]: 116% | viability, T/C [4]: 121% | viability, T/C [5]: 86.7% | viability, T/C [6]: 1.33% | viability, T/C [7]: 116% | viability, T/C [8]: 115% | viability, T/C [9]: 106% | viability, T/C [10]: 107% | viability, T/C [11]: 77.9% | viability, T/C [12]: 1% | viability, T/C [13]: 75.2% | viability, T/C [14]: 72.2% | viability, T/C [15]: 72.6% | viability, T/C [16]: 75.7% | viability, T/C [17]: 57.4% | viability, T/C [18]: 2.02% | viability, T/C [19]: 62.9% | viability, T/C [20]: 62.9% | viability, T/C [21]: 59.9% | viability, T/C [22]: 64.7% | viability, T/C [23]: 45.1% | viability, T/C [24]: 0.61% | viability, T/C [25]: 59.8% | viability, T/C [26]: 59.4% | viability, T/C [27]: 56.5% | viability, T/C [28]: 56.8% | viability, T/C [29]: 38.2% | viability, T/C [30]: 1.01% | viability, T/C [31]: 61.9% | viability, T/C [32]: 59% | viability, T/C [33]: 56.2% | viability, T/C [34]: 57.2% | viability, T/C [35]: 33.5% | viability, T/C [36]: 0.31%

C=CC(=O)N1CCN(c2nc(=O)n(-c3c(C)ccnc3C(C)C)c3nc(-c4c(O)cccc4F)c(F)cc23)C(C)C1 (stereo not drawn) + CNC(=O)c1ccc(Nc2nc(OC3CCCC3)c3c(-c4ccc5nc(C)oc5c4)c[nH]c3n2)c(OC)c1
IC50 (second compound 0.0316 µM): > 10000 nM | IC50 (second compound 0.1 µM): > 10000 nM | IC50 (second compound 0.316 µM): > 10000 nM | IC50 (second compound 1 µM): > 10000 nM | IC50 (second compound 3.16 µM): > 10000 nM | IC50 (second compound 10 µM): > 10000 nM | viability, T/C [1]: 110% | viability, T/C [2]: 105% | viability, T/C [3]: 109% | viability, T/C [4]: 121% | viability, T/C [5]: 126% | viability, T/C [6]: 121% | viability, T/C [7]: 124% | viability, T/C [8]: 109% | viability, T/C [9]: 121% | viability, T/C [10]: 112% | viability, T/C [11]: 137% | viability, T/C [12]: 123% | viability, T/C [13]: 81% | viability, T/C [14]: 76.5% | viability, T/C [15]: 76.5% | viability, T/C [16]: 89.1% | viability, T/C [17]: 88.9% | viability, T/C [18]: 82% | viability, T/C [19]: 68.7% | viability, T/C [20]: 63.5% | viability, T/C [21]: 66.8% | viability, T/C [22]: 68.3% | viability, T/C [23]: 74.1% | viability, T/C [24]: 68.7% | viability, T/C [25]: 57.1% | viability, T/C [26]: 59.5% | viability, T/C [27]: 59% | viability, T/C [28]: 61.7% | viability, T/C [29]: 70.3% | viability, T/C [30]: 59.2% | viability, T/C [31]: 58.7% | viability, T/C [32]: 59.9% | viability, T/C [33]: 58% | viability, T/C [34]: 64.9% | viability, T/C [35]: 70.5% | viability, T/C [36]: 56.8%

COC1C=CCC(C)C(C)S(=O)(=O)NC(=O)c2ccc3c(c2)N(CC2CCC21)CC1(CCCc2cc(Cl)ccc21)CO3 (stereo not drawn) + CNC(=O)c1ccc(Nc2nc(OC3CCCC3)c3c(-c4ccc5nc(C)oc5c4)c[nH]c3n2)c(OC)c1
IC50 (second compound 0.0316 µM): 6740 nM | IC50 (second compound 0.1 µM): 6730 nM | IC50 (second compound 0.316 µM): 2940 nM | IC50 (second compound 1 µM): 1180 nM | IC50 (second compound 3.16 µM): 466 nM | IC50 (second compound 10 µM): 519 nM | viability, T/C [1]: 131% | viability, T/C [2]: 119% | viability, T/C [3]: 109% | viability, T/C [4]: 92.1% | viability, T/C [5]: 74.6% | viability, T/C [6]: 37.2% | viability, T/C [7]: 124% | viability, T/C [8]: 117% | viability, T/C [9]: 109% | viability, T/C [10]: 85.9% | viability, T/C [11]: 72.2% | viability, T/C [12]: 39.1% | viability, T/C [13]: 91.1% | viability, T/C [14]: 78.1% | viability, T/C [15]: 74.3% | viability, T/C [16]: 57.5% | viability, T/C [17]: 52.2% | viability, T/C [18]: 36.4% | viability, T/C [19]: 71.3% | viability, T/C [20]: 65.2% | viability, T/C [21]: 58.8% | viability, T/C [22]: 49.4% | viability, T/C [23]: 45.6% | viability, T/C [24]: 34.4% | viability, T/C [25]: 70.1% | viability, T/C [26]: 59% | viability, T/C [27]: 52.2% | viability, T/C [28]: 45.7% | viability, T/C [29]: 40.4% | viability, T/C [30]: 33.1% | viability, T/C [31]: 59.3% | viability, T/C [32]: 54.4% | viability, T/C [33]: 53% | viability, T/C [34]: 45.9% | viability, T/C [35]: 43.2% | viability, T/C [36]: 34%

Reference: PubChem BioAssay AID2060600 (Molecular Pharmacology Branch, DTP, NCI, 2025)
